What is called IC50 is the concentration that gives 50% inhibition.

For the test, the target named is T1, HCV polymerase (NS5B570n-Con1) (Hepatitis C virus genotype 1b, UniProt Q9WMX2).
T1 construct: contains a 21 amino acid deletion at the C-terminus relative to the full-length HCV polymerase; 6-histidine (N); made in house; host or cells: E. coli BL21 (DE) pLysS
As to the kind of experiment: HCV NS5B RNA polymerase activity assay. The test is classed as biochemical, HCV Con1 strain. Particulars: IC50 NS5B polymerase assay, Table I. The protocol: The enzymatic activity of HCV polymerase (NS5B570n-Con1) was measured as the incorporation of radiolabeled nucleotide monophosphates into acid insoluble RNA products. Unincorporated radiolabeled substrate was removed by filtration and scintillant was added to the washed and dried filter plate containing radiolabeled RNA product. The amount of RNA product generated by NS5B570-Con1 at the end of the reaction was directly proportional to the amount of light emitted by the scintillant.
The N-terminal 6-histidine tagged HCV polymerase, derived from HCV Con1 strain, genotype 1b (NS5B570n-Con1) contains a 21 amino acid deletion at the C-terminus relative to the full-length HCV polymerase and was purified from E. coli strain BL21 (DE) pLysS. The construct, containing the coding sequence of HCV NS5B Con1 (GenBank accession number AJ242654) was inserted into the plasmid construct pETI 7b, downstream of a T7 promoter expression cassette and transformed into E. coli. A single colony was grown overnight as a starter culture and later used inoculate 10 L of LB media supplemented with 100 μg/mL ampicillin at 37° C. Protein expression was induced by the addition of 0.25 mM isopropyl-β-D-thiogalactopyranoside (IPTG) when optical density at […] of the culture was between 0.6 and 0.8 and cells were harvested after 16 to 18 h at 30° C. NS5B570n-Con1 was purified to homogeneity using a three-step protocol including subsequent column chromatography on Ni-NTA, SP-Sepharose HP and Superdex 75 resins.
Each 50 μl enzymatic reaction contained 20 nM RNA template derived from the complementary sequence of the Internal Ribosome Entry Site (cIRES), 20 nM NS5B570n-Con1 enzyme, 0.5 μCi of tritiated UTP (Perkin Elmer catalog no. TRK-412; specific activity: 30 to 60 Ci/mmol; stock solution concentration from 7.5×10^-5 M to 20.6×10^-6 M), 1 μM each ATP, CTP, and GTP, 40 mM Tris-HCl pH 8.0, 40 mM NaCl, 4 mM DTT (dithiothreitol), 4 mM MgCl2, and 5 μl of compound serial diluted in DMSO. Reaction mixtures were assembled in 96-well filter plates (cat #MADVN0B, Millipore Co.) and incubated for 2 h at 30° C. Reactions were stopped by addition of 10% final (v/v) trichloroacetic acid and incubated for 40 min at 4° C. Reactions were filtered, washed with 8 reaction volumes of 10% (v/v) trichloroacetic acetic acid, 4 reaction volumes of 70% (v/v) ethanol, air dried, and 25 μl of scintillant (Microscint 20, Perkin-Elmer) was added to each reaction well.
The amount of light emitted from the scintillant was converted to counts per minute (CPM) on a Topcount® plate reader (Perkin-Elmer, Energy Range: Low, Efficiency Mode Normal, Count Time: 1 min, Background Subtract: none, Cross talk reduction: Off).
Data was analyzed in Excel® (Microsoft®) and ActivityBase® (idbsg). The reaction in the absence of enzyme was used to determine the background signal, which was subtracted from the enzymatic reactions. Positive control reactions were performed in the absence of compound, from which the background corrected activity was set as 100% polymerase activity. All data was expressed as a percentage of the positive control. The compound concentration at which the enzyme-catalyzed rate of RNA synthesis was reduced by 50% (IC50) was calculated by fitting
[formula] equation (t) to the data.where “Y” corresponds to the relative enzyme activity (in %), “% Min” is the residual relative activity at saturating compound concentration, “% Max” is the relative maximum enzymatic activity, “X” corresponds to the compound concentration, and “S” is the Hill coefficient (or slope).
In turn, `CNC(=O)c1c(-c2ccc(Oc3ccc(F)cc3)cc2)oc2cc(N(C)S(C)(=O)=O)c(OC)cc12` [Compound I-35] showed an IC50 of 0.051 µM. The compound `CNC(=O)c1c(-c2ccc(Oc3cccc(Cl)c3)cc2)oc2cc(N(CCO)S(C)(=O)=O)c(OC(C)C)cc12` [Compound I-46] had an IC50 of 0.051 µM. `CNC(=O)c1c(-c2ccc(Oc3ccc(F)cc3)cc2)oc2cc(N(CC(N)=O)S(C)(=O)=O)c(C3CC3)cc12` [Compound I-73] registered an IC50 of 0.056 µM. To `CNC(=O)c1c(-c2ccc(Oc3ccc(C#N)cc3)cc2)oc2cc(N(CCO)S(C)(=O)=O)c(OC)cc12` [Compound I-48] belongs 1.07 µM; to `CNC(=O)c1c(-c2ccc(Nc3cccc(C#N)c3)cc2)oc2cc(N(CCO)S(C)(=O)=O)c(OC)cc12` [Compound I-12], 0.298 µM. To `CNC(=O)c1c(-c2ccc(Oc3ccc(F)cc3)cc2)oc2cc(N(CCCSC)S(C)(=O)=O)c(C3CC3)cc12` [Compound I-113] belongs 0.018 µM; to `CNC(=O)c1c(-c2ccc(Oc3ccc(F)cc3)cc2)oc2cc(NS(C)(=O)=O)c(OC)cc12` [Compound I-43], 0.238 µM; to `CNC(=O)c1c(-c2ccc(Oc3ccccc3)cc2)oc2cc(N(CCO)S(C)(=O)=O)c(OC)cc12` [Compound I-4, 6-[(2-Hydroxy-ethyl)-methanesulfonyl-amino]-5-methoxy-2-(4-phenoxy-phenyl)-benzofuran-3-carboxylic acid methylamide], 0.062 µM. For `CNC(=O)c1c(-c2ccc(Oc3ccc(F)cc3)cc2)oc2cc(N(CC3COC3)S(C)(=O)=O)c(C3CC3)cc12` [Compound I-70, 5-Cyclopropyl-2-[4-(4-fluoro-phenoxy)-phenyl]-6-(methanesulfonyl-oxetan-3-ylmethyl-amino)-benzofuran-3-carboxylic acid methylamide], it took 0.013 µM to reach half-maximal inhibition (IC50). Regarding `CNC(=O)c1c(-c2ccc(Oc3ccc(F)c(F)c3)cc2)oc2cc(N(CCO)S(C)(=O)=O)c(OC)cc12` [Compound I-45], the IC50 is 0.048 µM. The same measure for `CNC(=O)c1c(-c2ccc(Oc3ccc(F)cc3)cc2)oc2cc(C(C)(C)O)c(OC)cc12` [Compound I-103]: 0.037 µM. To `CNC(=O)c1c(-c2ccc(Oc3ccc(F)cc3)cc2)oc2cc(C3CCCN3C(C)=O)c(OC)cc12` (stereo not drawn) [Compound I-109, 6-(1-acetyl-pyrrolidin-2-yl)-2-[4-(4-fluoro-phenoxy)-phenyl]-5-methoxy-benzofuran-3-carboxylic acid methylamide] belongs 0.044 µM. The same measure for `CNC(=O)c1c(-c2ccc(Oc3ccc(F)cc3)cc2)oc2cc(C(C)(C)O)c(C3CC3)cc12` [Compound I-110, 5-Cyclopropyl-2-[4-(4-fluoro-phenoxy)-phenyl]-6-(1-hydroxy-1-methyl-ethyl)-benzofuran-3-carboxylic acid methylamide]: 0.039 µM; for `CNC(=O)c1c(-c2ccc(Nc3ccccc3F)cc2)oc2cc(N(CCO)S(C)(=O)=O)c(OC)cc12` [Compound I-5]: 0.034 µM; for `CNC(=O)c1c(-c2ccc(Nc3ccc(F)cc3)nc2)oc2cc(N(CCO)S(C)(=O)=O)c(OC)cc12` [Compound I-126, 2-[6-(4-Fluoro-phenylamino)-pyridin-3-yl]-6-[(2-hydroxy-ethyl)-methanesulfonyl-amino]-5-methoxy-benzofuran-3-carboxylic acid methylamide]: 0.468 µM. `CCN(c1cc2oc(-c3ccc(Oc4ccc(F)cc4)cc3)c(C(=O)NC)c2cc1OC)S(C)(=O)=O` [Compound I-24] showed an IC50 of 0.13 µM. The same measure for `CNC(=O)c1c(-c2ccc(Oc3ccc(F)cc3)cc2)oc2cc(N(CCCN(C)S(C)(=O)=O)S(C)(=O)=O)c(C3CC3)cc12` [Compound I-117]: 0.011 µM. As to `CNC(=O)c1c(-c2ccc(Oc3ccc(F)cc3)cc2)oc2cc(N(CC[S+](C)[O-])S(C)(=O)=O)c(C3CC3)cc12` (stereo not drawn) [Compound I-120, 5-Cyclopropyl-2-[4-(4-fluoro-phenoxy)-phenyl]-6-[(2-methanesulfinyl-ethyl)-methanesulfonyl-amino]-benzofuran-3-carboxylic acid methylamide], the IC50 turned out to be 0.019 µM. The same measure for `CNC(=O)c1c(-c2ccc(Oc3ccc(F)cc3)cc2)oc2cc(N(Cc3cncnc3)S(C)(=O)=O)c(C3CC3)cc12` [Compound I-88]: 0.026 µM; for `CNC(=O)c1c(-c2ccc(Nc3ccc(C(F)(F)F)cc3)cc2)oc2cc(N(CCO)S(C)(=O)=O)c(OC)cc12` [Compound I-11]: 1.95 µM; for `CNC(=O)c1c(-c2ccc(Oc3ccccc3Cl)cc2)oc2cc(N(CCO)S(C)(=O)=O)c(OC)cc12` [Compound I-44]: 0.082 µM.

For the compound `CNC(=O)c1c(-c2ccc(Oc3ccc(F)cc3)cc2)oc2cc(N(C)S(C)(=O)=O)c(Cl)cc12` [Compound I-66], 0.029 µM corresponded to half-maximal inhibition (IC50). To `CNC(=O)c1c(-c2ccc(Oc3ccc(F)cc3)cc2)oc2cc(N(CC3(C)COC3)S(C)(=O)=O)c(C3CC3)cc12` [Compound I-87] belongs 0.134 µM. To `CNC(=O)c1c(-c2ccc(Oc3ccc(F)cc3)cc2)oc2cc(N(CCO)S(C)(=O)=O)c(OC)cc12` [Compound I-8] belongs 0.057 µM.

`CNC(=O)c1c(-c2ccc(Oc3ccc(F)cc3)cc2)oc2cc(N([C@H]3CC[C@@H](O)CC3)S(C)(=O)=O)c(C3CC3)cc12` [Compound I-99] returned an IC50 of 0.023 µM.

The compound `CNC(=O)c1c(-c2ccc(Oc3cccc(F)c3)cc2)oc2cc(N(CCO)S(C)(=O)=O)c(OC(C)C)cc12` [Compound I-26] came in with an IC50 of 0.082 µM. The same measure for `CNC(=O)c1c(-c2ccc(Oc3ccc(F)cc3)cc2)oc2cc(N([C@H]3CC[C@H](O)CC3)S(C)(=O)=O)c(C3CC3)cc12` [Compound I-100]: 0.025 µM; for `CNC(=O)c1c(-c2ccc(Nc3ccc(F)cc3)cc2)oc2cc(N(CCO)S(C)(=O)=O)c(C3CC3)cc12` [Compound I-62]: 0.013 µM; for `CNC(=O)c1c(-c2ccc(Oc3ccc(F)cc3)cc2)oc2cc(C3CCCN3)c(OC)cc12` (stereo not drawn) [Compound I-111, 2-[4-(4-Fluoro-phenoxy)-phenyl]-5-methoxy-6-pyrrolidin-2-yl-benzofuran-3-carboxylic acid methylamide]: 0.933 µM. For the compound `CCN(c1cc2oc(-c3ccc(Nc4ccc(F)cc4)cc3)c(C(=O)NC)c2cc1OC)S(C)(=O)=O` [Compound I-17], the 50% inhibitory concentration (IC50) is 0.081 µM. To `CNC(=O)c1c(-c2ccc(Oc3ccc(F)cc3)cc2)oc2cc(N(CCN)C(C)=O)c(OC)cc12` [Compound I-54] belongs 1.24 µM; to `CNC(=O)c1c(-c2ccc(Nc3ccc(C#N)cc3)cc2)oc2cc(N(CCO)S(C)(=O)=O)c(OC)cc12` [Compound I-13], 1.84 µM; to `CCN(c1cc2oc(-c3ccc(Oc4ccccc4F)cc3)c(C(=O)NC)c2cc1OC)S(C)(=O)=O` [Compound I-23], 0.052 µM.

Regarding `CNC(=O)c1c(-c2ccc(Oc3ccc(F)cc3)cc2)oc2cc(N(CCCCN)S(C)(=O)=O)c(C3CC3)cc12` [Compound I-92], half-maximal inhibition (IC50) was put at 0.056 µM. To `CNC(=O)c1c(-c2ccc(Oc3ccc(F)cc3)cc2)oc2cc(N(C(C)CN)S(C)(=O)=O)c(C3CC3)cc12` (stereo not drawn) [Compound I-95] belongs 0.06 µM; to `CNC(=O)c1c(-c2ccc(Nc3ccc(F)cc3)cc2)oc2cc(N(CCO)S(C)(=O)=O)c(OC(C)C)cc12` [Compound I-31], 0.092 µM.

These data come from US8071797B2 (priority 2008, dated 2011).
